These results are taken from patent publication US8003628B2, “Methods of inhibiting osteoclast activity” (The Trustees of The University of Pennsylvania, priority 1999, dated 2011).

The subject of experiment [1] is TRANCE-induced marrow cultures. As to the kind of experiment: TRANCE-induced marrow cultures. It counts as cell-based. The conditions noted are these: reciprocal dose-dependence of WP9QY and TRANCE. Here is the method: This peptide (5-500 μM) was tested for its effect on osteoclast formation using the co-culture system induced by 1,250H2D3 and PGE2. […] There was a reciprocal dose-dependence of WP9QY and TRANCE. Thus, WP9QY is capable of interfering not only with TNF/TNF receptor (1) interaction but also with RANK Ligand/RANK interaction, thereby decreasing the osteoclastogenic potential of this cytokine.

For experiment [2], the target named is osteoclast formation. The protocol: Cytochemical staining for TRAP is widely used for identifying osteoclasts in vivo and in vitro. Naphthol AS-MX phosphate 5 mg. Sigma, St. Louis, Mo.) is resolved in 0.5 ml of N,N-dimethylformamide (Wako). Thirty milligrams of fast red violet LB salt (Sigma) and 50 ml of 0.1 M sodium acetate buffer (pH 5.0) containing 50 mM sodium tartratet are added to the mixture (the TRAP-staining solution). Cells are fixed with 3.7% (v/v) formaldehyde in Ca^2−- and Mg^2+-free phosphate-buffered saline [PBS(−)] for 10 min. fixed again with ethanol-acetone (50:50, v:v) for 1 min. and incubated with the TRAP-staining solution for 10 min. at room temperature. TRAP-positive osteoclasts appear as red cells. The incubation period longer than 10 min. should be avoided since cells other than osteoclasts become weakly positive with time. After staining, cells are washed with distilled water, and TRAP-positive multinucleated cells having three or more nuclei are counted as osteoclasts under a microscope.

The test system of experiment [3] is L929 lymphocytes. The conditions noted are these: Takasaki et al. 1997; cited from earlier work.
The target of experiment [4] is TNF-related activation-induced cytokine (TRANCE). As to the kind of experiment: cell-based or functional assay.

In general, IC50 refers to the concentration that inhibits the measured activity by half. Take `CC(C)C[C@@H]1NC(=O)[C@H](Cc2ccc(O)cc2)NC(=O)[C@H](CCC(N)=O)NC(=O)[C@H](CO)NC(=O)[C@H](Cc2c[nH]c3ccccc23)NC(=O)[C@@H](NC(=O)[C@@H](N)Cc2ccc(O)cc2)CSSC[C@@H](C(=O)N[C@@H](Cc2ccc(O)cc2)C(=O)O)NC1=O` [WP9QY]: in experiment [1], the “effect on TRANCE-induced marrow cultures” value is reported as “inhibits TRANCE-induced marrow cultures”. Also, the “IC50 osteoclastogenesis relative to IC50 TNF/TNF receptor (1) interaction” value in experiment [2] (250 μM vs 5 μM) is given as 50 fold. Moreover, the “effect on osteoclastogenesis” value in experiment [2] (co-culture system, peptide 5-500 μM) is “dose- and time-dependently inhibited”. In addition, the IC50 in experiment [2] (read-out: IC50, inhibition of osteoclastogenesis, co-culture system induced by 1,250H2D3 and PGE2, peptide 5-500 μM) came to 250 µM. In addition, in experiment [3], the “antagonism of effects of TNF-binding to TNF-α receptor (1)” value is “efficiently antagonized”.
Take WP9QY (peptide): the osteoclast formation in the co-culture system induced by 1,25(OH)2D3 and PGE2 (IC50) in experiment [4] was 250 µM.
